Reference: ChEMBL document CHEMBL5143750, “Bisubstrate Inhibitors of Severe Acute Respiratory Syndrome Coronavirus-2 Nsp14 Methyltransferase” (ACS Med Chem Lett, 2022)

Tested on: SARS-CoV-2
Test: Antiviral activity against SARS-CoV-2 infected in human A549 cells overexpressing ACE2 and TMPRSS2 assessed as inhibition of viral growth at 50 uM incubated for 48 hrs by DAPI staining based immunofluorescence assay
Type: functional
Conditions: Severe acute respiratory syndrome coronavirus 2, A549

Row | SMILES | inhibition at 50 µM [%]
1 | Nc1ncnc2c1ncn2[C@@H]1O[C@H](CNCc2ccc3ccccc3c2)[C@@H](O)[C@H]1O | < 15
2 | Nc1ncnc2c1ncn2[C@@H]1O[C@H](CNC(=O)c2ccc3ccccc3c2)[C@@H](O)[C@H]1O | < 15
3 | Nc1ncnc2c1ncn2[C@@H]1O[C@H](CNS(=O)(=O)c2ccc3cccnc3c2)[C@@H](O)[C@H]1O | < 15
4 | CC(=O)Nc1ncnc2c1ncn2[C@@H]1O[C@H](CNS(=O)(=O)c2ccc3ccccc3c2)[C@@H](O)[C@H]1O | < 15
5 | Nc1ncnc2c1ncn2[C@@H]1O[C@H](CNS(=O)(=O)c2ccc3ccccc3c2)[C@@H](O)[C@H]1O | < 15
6 | Nc1ncnc2c1ncn2[C@@H]1O[C@H](CNS(=O)(=O)c2ccc3nc(Cl)ccc3c2)[C@@H](O)[C@H]1O | < 15
7 | Nc1ncnc2c1ncn2[C@@H]1O[C@H](C[C@@H](N)CC[C@H](N)C(=O)O)[C@@H](O)[C@H]1O [SINEFUNGIN] | < 15

Tested on: not listed separately
Test: Therapeutic index, ratio of CC50 for cytotoxicity against human A549 cells overexpressing ACE2 and TMPRSS2 to EC50 for antiviral activity against SARS-CoV-2 infected in human A549 cells overexpressing ACE2 and TMPRSS2 assessed as reduction in viral growth
Type: toxicity, cell-based
Conditions: read-out: Ratio CC50/EC50

Row | SMILES | selectivity ratio
8 | Nc1ncnn2c([C@@H]3O[C@H](CNS(=O)(=O)c4ccc5ccccc5c4)[C@@H](O)[C@H]3O)ccc12 | > 139

Tested on: SARS-CoV-2
Test: Antiviral activity against SARS-CoV-2 infected in human A549 cells overexpressing ACE2 and TMPRSS2 assessed as reduction in viral growth incubated for 48 hrs by DAPI staining based immunofluorescence assay
Type: functional, organism-based
Conditions: Severe acute respiratory syndrome coronavirus 2, A549, 48 h

Row | SMILES | EC50 [µM]
9 | CC(C)C(=O)O[C@@H]1[C@H](OC(=O)C(C)C)[C@@H](CNS(=O)(=O)c2ccc3ccccc3c2)O[C@H]1n1cnc2c(N)ncnc21 | 97
10 | CC(=O)Nc1ncnc2c1ncn2[C@@H]1O[C@H](CNS(=O)(=O)c2ccc3ccccc3c2)[C@@H](OC(C)=O)[C@H]1OC(C)=O | 61
11 | Nc1ncnn2c([C@@H]3O[C@H](CNS(=O)(=O)c4ccc5ccccc5c4)[C@@H](O)[C@H]3O)ccc12 | 0.72
12 | CC(=O)O[C@@H]1[C@H](OC(C)=O)[C@@H](CNS(=O)(=O)c2ccc3ccccc3c2)O[C@H]1c1ccc2c(N)ncnn12 | 4.3
13 | CC(=O)O[C@@H]1[C@H](OC(C)=O)[C@@H](CNS(=O)(=O)c2ccc3ccccc3c2)O[C@H]1n1cnc2c(N)ncnc21 | 53
